Experimental data: patent US11866414B2, “Substituted heterocyclic compounds” (BRISTOL-MYERS SQUIBB COMPANY, priority 2021, dated 2024)
Like-named read-outs stand apart in the source and are kept apart here.

Assays:
[1] = Brain penetration in vivo assay (brain and plasma exposure); conditions: C57BL6, brain / plasma, 10 mg/kg, mouse, 10 mpk, po, read-out: Ratio of exposure in brain to plasma (mouse) (1 h, 10 mpk, po)
Procedure: Brain Penetration In Vivo Assay
A pharmacokinetic study was performed using C57BL6 wild-type mice (n=3 per experiment) to determine brain and plasma exposure of compounds of the invention. The compound was administered orally in a solution of 5% ETHANOL: 90% PEG 300; 5% TPGS at 5 mL/kg for a final concentration of 10 mg/kg. Nice were euthanized 1 hour post-dose and plasma and brain were collected and frozen for analysis. Brain tissues were homogenized in a 1:1 volume of blank C57BL6 mouse plasma. Concentrations of the compound in plasma and brain homogenate were determined by LC-MS analysis.

[2] = in vitro; conditions: human, Caco-2, pH 7.4
[3] = test system: IFNα-induced STAT phosphorylation (pSTAT5); assay: IFNα-induced STAT phosphorylation in human whole blood; format: cell-based; conditions: 1 h compound, 1000 U/mL IFNα A/D 15 min, CD3 positive population, read-out: Human Whole blood IFNa pSTAT5 IC50
Procedure: IFNα-Induced STAT Phosphorylation in Human Whole Blood
After an hour long incubation with compound, human whole blood (drawn with ACD-A as anticoagulant) was stimulated with 1000 U/mL recombinant human IFNα A/D (R&D Systems 11200-2) for 15 min. The stimulation was stopped by adding Fix/Lyse buffer (BD 558049). Cells were stained with a CD3 FITC antibody (BD 555916), washed, and permeabilized on ice using Perm III buffer (BD 558050). Cells were then stained with an Alexa-Fluor 647 pSTAT5 (pY694) antibody (BD 612599) for 60 min prior to analysis on the iQue Plus. The amount of pSTAT5 expression was quantitated by median fluorescence intensity after gating on the CD3 positive population.

Row | Kp at 1 h ([1]; Table 4, comparison of CNS penetration with prior art) | Papp A→B at 2 h, 3 μM [2] [×10⁻⁶ cm/s] | efflux ratio at 2 h, 3 μM [2] | Kp at 1 h [1] | IC50 [3] [nM] | Compound
1 | 0.02 |  |  |  |  | [2H]C([2H])([2H])NC(=O)c1nnc(NC(=O)C2CC2)cc1Nc1cccc(-c2ncn(C3CC3)n2)c1OC [B, reference compound]
2 |  | 29.1 | 0.8 | 0.7 | 260 | [2H]C([2H])([2H])NC(=O)c1nnc(NC(=O)C2CC2)cc1Nc1cccc(-c2cnn(CC)n2)c1OC [Example 1, 6-(cyclopropanecarboxamido)-4-((2-methoxy-3-(2-ethyl-2H-1,2,3-triazol-4-yl)phenyl)amino)-N-(methyl-d3)pyridazine-3-carboxamide]
3 |  | 32.7 | 0.6 | 0.8 | 290 | [2H]C([2H])([2H])NC(=O)c1nnc(NC(=O)C2CC2)cc1Nc1cc(F)cc(-c2cnn(C)n2)c1OC [Example 4, 6-cyclopropaneamido-4-{[5-fluoro-2-methoxy-3-(2-methyl-2H-1,2,3-triazol-4-yl)phenyl]amino}-N—(^2H3)methylpyridazine-3-carboxamide]
4 |  | 20.9 | 0.9 | 0.2 | 60 | [2H]C([2H])([2H])NC(=O)c1nnc(Nc2ccc(OC)nn2)cc1Nc1cccc(-c2cnn(C)n2)c1OC [Example 5, 4-{[2-methoxy-3-(2-methyl-2H-1,2,3-triazol-4-yl)phenyl]amino}-6-[(6-methoxypyridazin-3-yl)amino]-N—(^2H3)methylpyridazine-3-carboxamide]
5 |  | 14 | 0.3 | 0.2 | 100 | [2H]C([2H])([2H])NC(=O)c1nnc(NC(=O)C2CC2)cc1Nc1cc(C)cc(-c2cnn(C3CC3)n2)c1OC [Example 9, 6-cyclopropaneamido-4-{[3-(2-cyclopropyl-2H-1,2,3-triazol-4-yl)-2-methoxy-5-methylphenyl]amino}-N—(^2H3)methylpyridazine-3-carboxamide]
6 |  | 9.7 | 0.7 | 0.5 | 120 | [2H]C([2H])([2H])NC(=O)c1nnc(NC(=O)C2CC2)cc1Nc1cccc(-c2cnn(C3CC3)n2)c1OC [Example 11, 6-cyclopropaneamido-4-{[3-(2-cyclopropyl-2H-1,2,3-triazol-4-yl)-2-methoxyphenyl]amino}-N—(^2H3)methylpyridazine-3-carboxamide]
7 |  | 33 | 0.5 | 0.2 | 120 | [2H]C([2H])([2H])NC(=O)c1nnc(NC(=O)C2CC2)cc1Nc1cc(OC)cc(-c2cnn(C)n2)c1OC [Example 24, 6-(cyclopropane-carboxamido)-4-((2,5-dimethoxy-3-(2-methyl-2H-1,2,3-triazol-4-yl)phenyl)amino)-N-(methyl-d3)pyridazine-3-carboxamide]
8 |  | 32.8 | 0.6 | 0.8 | 50 | [2H]C([2H])([2H])NC(=O)c1nnc(NC(=O)C2CC2)cc1Nc1nccc(-c2cnn(C)n2)c1OC [Example 36, 6-(cyclopropanecarboxamido)-4-((3-methoxy-4-(2-methyl-2H-1,2,3-triazol-4-yl)pyridin-2-yl)amino)-N-(methyl-d3)pyridazine-3-carboxamide]
9 |  | 49.4 | 0.9 | 0.1 | 20 | [2H]C([2H])([2H])NC(=O)c1nnc(NC(=O)[C@@H]2C[C@@H]2F)cc1Nc1nccc(-c2cnn(C)n2)c1OC [Example 37, 6-((1S,2S)-2-fluorocyclopropane-1-carboxamido)-4-((3-methoxy-4-(2-methyl-2H-1,2,3-triazol-4-yl)pyridin-2-yl)amino)-N-(methyl-d3)pyridazine-3-carboxamide]
10 |  | 33.9 | 0.5 | 0.3 | 80 | [2H]C([2H])([2H])NC(=O)c1nnc(NC(=O)[C@@H]2C[C@H]2C)cc1Nc1nccc(-c2cnn(C)n2)c1OC [Example 41, 4-((3-methoxy-4-(2-methyl-2H-1,2,3-triazol-4-yl)pyridin-2-yl)amino)-N-(methyl-d3)-6-((1R,2R)-2-methylcyclopropane-1-carboxamido)pyridazine-3-carboxamide]
11 |  | 26.5 | 0.4 |  | 170 | [2H]C([2H])([2H])NC(=O)c1nnc(N2CCN(C(C)C)C2=O)cc1Nc1cccc(-c2cnn(C)n2)c1OC [Example 50, 6-(3-isopropyl-2-oxoimidazolidin-1-yl)-4-((2-methoxy-3-(2-methyl-2H-1,2,3-triazol-4-yl)phenyl)amino)-N-(methyl-d3)pyridazine-3-carboxamide]
12 |  | 81.6 | 0.4 |  | 10 | [2H]C([2H])([2H])NC(=O)c1nnc(NC(=O)C2CC2)cc1Nc1nccc(-c2cnn(C([2H])([2H])[2H])n2)c1OC [Example 57, 6-(cyclopropane-carboxamido)-4-((3-methoxy-4-(2-(methyl-d3)-2H-1,2,3-triazol-4-yl)pyridin-2-yl)amino)-N-(methyl-d3)pyridazine-3-carboxamide]
13 |  | 38.3 | 0.4 |  | 480 | [2H]C([2H])([2H])NC(=O)c1nnc(NC(=O)N(C)C)cc1Nc1nccc(-c2cnn(C3CC3)n2)c1OC [Example 61, 4-((4-(2-cyclopropyl-2H-1,2,3-triazol-4-yl)-3-methoxypyridin-2-yl)amino)-6-(3,3-dimethylureido)-N-(methyl-d3)pyridazine-3-carboxamide]
14 |  | 3.9 | < 0.4 |  | 20 | [2H]C([2H])([2H])NC(=O)c1nnc(Nc2ccccn2)cc1Nc1nccc(-c2cnn(C)n2)c1OC [Example 63, 4-((3-methoxy-4-(2-methyl-2H-1,2,3-triazol-4-yl)pyridin-2-yl)amino)-N-(methyl-d3)-6-(pyridin-2-ylamino)pyridazine-3-carboxamide]
15 |  | 1.7 | < 0.9 |  | 250 | [2H]C([2H])([2H])NC(=O)c1nnc(Nc2cc(C)nc(C)n2)cc1Nc1nccc(-c2cnn(C)n2)c1OC [Example 64, 6-[(2,6-dimethylpyrimidin-4-yl)amino]-4-{[3-methoxy-4-(2-methyl-2H-1,2,3-triazol-4-yl)pyridin-2-yl]amino}-N—(^2H3)methylpyridazine-3-carboxamide]
16 |  | 11.7 | 1.6 |  | 4 | [2H]C([2H])([2H])NC(=O)c1nnc(Nc2ccc(C(C)(C)O)cn2)cc1Nc1nccc(-c2cnn(C)n2)c1OC [Example 65, 6-{[5-(2-hydroxypropan-2-yl)pyridin-2-yl]amino}-4-{[3-methoxy-4-(2-methyl-2H-1,2,3-triazol-4-yl)pyridin-2-yl]amino}-N—(^2H3)methylpyridazine-3-carboxamide]
17 |  | 22.2 | 0.3 |  | 0.2 | [2H]C([2H])([2H])NC(=O)c1nnc(Nc2ccc(N3CCOCC3)cn2)cc1Nc1nccc(-c2cnn(C)n2)c1OC [Example 66, 4-{[3-methoxy-4-(2-methyl-2H-1,2,3-triazol-4-yl)pyridin-2-yl]amino}-N—(^2H3)methyl-6-{[5-(morpholin-4-yl)pyridin-2-yl]amino}pyridazine-3-carboxamide]
18 |  | 28.6 | 0.9 |  | 86 | [2H]C([2H])([2H])NC(=O)c1nnc(Nc2cc(C(C)(C)O)ccn2)cc1Nc1nccc(-c2cnn(C)n2)c1OC [Example 67, 6-{[4-(2-hydroxypropan-2-yl)pyridin-2-yl]amino}-4-{[3-methoxy-4-(2-methyl-2H-1,2,3-triazol-4-yl)pyridin-2-yl]amino}-N—(^2H3)methylpyridazine-3-carboxamide]
19 |  | 59.4 | 0.4 |  | 290 | [2H]C([2H])([2H])NC(=O)c1nnc(Nc2cc(C)n(C)n2)cc1Nc1nccc(-c2cnn(C)n2)c1OC [Example 68, 6-[(1,5-dimethyl-1H-pyrazol-3-yl)amino]-4-{[3-methoxy-4-(2-methyl-2H-1,2,3-triazol-4-yl)pyridin-2-yl]amino}-N—(^2H3)methylpyridazine-3-carboxamide]
20 |  | 36.2 | 0.6 |  | 3 | [2H]C([2H])([2H])NC(=O)c1nnc(NC(=O)[C@@H]2C[C@@H]2F)cc1Nc1nc(C)cc(-c2cnn(C)n2)c1OC [Example 69, 6-((1S,2S)-2-fluorocyclopropane-1-carboxamido)-4-((3-methoxy-6-methyl-4-(2-methyl-2H-1,2,3-triazol-4-yl)pyridin-2-yl)amino)-N-(methyl-d3)pyridazine-3-carboxamide]
